Key:
[1] = target: T1, 5-hydroxytryptamine receptor 3A/3B (Mus musculus, UniProt P23979+Q9JHJ5); assay: Compound was evaluated for binding to Serotonin 5-hydroxytryptamine 3 receptor in N1E cells using [3H]- -Tropisetron as radioligand
T1 sequence (P23979 whole entry): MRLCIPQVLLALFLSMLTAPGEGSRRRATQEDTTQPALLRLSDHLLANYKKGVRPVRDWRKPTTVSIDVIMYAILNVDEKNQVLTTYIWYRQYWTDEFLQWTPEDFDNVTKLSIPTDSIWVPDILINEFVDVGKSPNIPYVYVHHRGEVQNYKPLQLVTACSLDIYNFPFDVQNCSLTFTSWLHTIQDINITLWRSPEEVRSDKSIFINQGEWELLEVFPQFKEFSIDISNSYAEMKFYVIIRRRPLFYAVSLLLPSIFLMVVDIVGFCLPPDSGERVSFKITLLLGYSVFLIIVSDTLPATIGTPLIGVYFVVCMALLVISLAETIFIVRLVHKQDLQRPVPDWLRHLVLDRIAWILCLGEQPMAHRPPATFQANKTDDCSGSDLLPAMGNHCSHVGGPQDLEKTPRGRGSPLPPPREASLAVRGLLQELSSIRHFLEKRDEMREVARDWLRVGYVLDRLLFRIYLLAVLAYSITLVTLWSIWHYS
T1 sequence (Q9JHJ5 whole entry): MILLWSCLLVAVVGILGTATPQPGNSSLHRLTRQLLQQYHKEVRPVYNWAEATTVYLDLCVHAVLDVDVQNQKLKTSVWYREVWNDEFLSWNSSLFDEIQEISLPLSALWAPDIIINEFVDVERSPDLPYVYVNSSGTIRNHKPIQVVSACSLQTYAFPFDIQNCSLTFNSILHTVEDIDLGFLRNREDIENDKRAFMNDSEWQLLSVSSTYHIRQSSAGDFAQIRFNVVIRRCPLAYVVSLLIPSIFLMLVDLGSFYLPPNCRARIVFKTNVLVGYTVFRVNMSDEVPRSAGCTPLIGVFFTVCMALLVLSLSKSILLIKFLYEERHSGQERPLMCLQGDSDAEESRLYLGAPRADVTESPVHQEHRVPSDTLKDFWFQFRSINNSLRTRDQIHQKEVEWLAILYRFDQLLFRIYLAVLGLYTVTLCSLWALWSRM

[2] = target: T1, 5-hydroxytryptamine receptor 3A/3B; assay: Compound was evaluated for binding to 5-hydroxytryptamine 3 receptor in N1E cells using [3H]- -Tropisetron as radioligand

| Kd [2] [pM] | SMILES | Kd [1] [pM] |
| --- | --- | --- |
|  | CN1C2CC(OC(=O)c3c[nH]c4ccccc34)CC1C1OC12 (stereo not drawn) | 631 |
|  | CN1[C@@H]2CC[C@H]1C[C@@H](OC(=O)c1c[nH]c3ccccc13)C2 [(3-ENDO)-8-METHYL-8-AZABICYCLO[3.2.1]OCT-3-YL 1H-INDOLE-3-CARBOXYLATE] | 794 |
| 20000 | Cc1nccn1CC1CCc2c(c3ccccc3n2C)C1=O (stereo not drawn) [NSC_68647] |  |

Reference: BindingDB's records for doi:10.1016/S0960-894X(00)80170-5 (1992)
